{"source": "the kinase profiling compilation of Christmann-Franck et al. (2016)", "key": {"AURKA (human) [1]": {"target": "AURKA (human) (UniProt O14965)", "sequence (O14965 whole entry, looked up)": "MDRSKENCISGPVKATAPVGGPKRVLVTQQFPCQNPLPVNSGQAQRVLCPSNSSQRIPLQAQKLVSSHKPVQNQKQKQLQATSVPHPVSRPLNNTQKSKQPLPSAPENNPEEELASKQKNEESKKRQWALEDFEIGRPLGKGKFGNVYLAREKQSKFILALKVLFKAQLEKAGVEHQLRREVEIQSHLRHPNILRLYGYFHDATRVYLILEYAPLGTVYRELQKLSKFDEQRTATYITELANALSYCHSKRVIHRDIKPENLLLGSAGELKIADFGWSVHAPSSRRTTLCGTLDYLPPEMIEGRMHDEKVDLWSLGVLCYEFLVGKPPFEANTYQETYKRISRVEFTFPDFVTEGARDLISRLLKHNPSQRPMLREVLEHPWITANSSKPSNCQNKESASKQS", "test": "radiometric filter-binding kinase assay"}, "DAPK1 (human)": {"target": "DAPK1 (human) (UniProt P53355)", "test": "radiometric filter-binding kinase assay"}, "GCK (human)": {"target": "GCK (human) (UniProt Q12851)", "test": "radiometric filter-binding kinase assay"}, "DYRK2 (human)": {"target": "DYRK2 (human) (UniProt Q92630)", "test": "radiometric filter-binding kinase assay"}, "BRSK2 (human)": {"target": "BRSK2 (human) (UniProt Q8IWQ3)", "test": "radiometric filter-binding kinase assay"}, "[2]": {"tested_on": "RPS6KB1 (human), P23443 [T412E]", "test": "radiometric filter-binding kinase assay"}, "MKNK1 (human)": {"target": "MKNK1 (human) (UniProt Q9BUB5)", "test": "radiometric filter-binding kinase assay"}, "HIPK3 (human)": {"target": "HIPK3 (human) (UniProt Q9H422)", "sequence (Q9H422 whole entry, looked up)": "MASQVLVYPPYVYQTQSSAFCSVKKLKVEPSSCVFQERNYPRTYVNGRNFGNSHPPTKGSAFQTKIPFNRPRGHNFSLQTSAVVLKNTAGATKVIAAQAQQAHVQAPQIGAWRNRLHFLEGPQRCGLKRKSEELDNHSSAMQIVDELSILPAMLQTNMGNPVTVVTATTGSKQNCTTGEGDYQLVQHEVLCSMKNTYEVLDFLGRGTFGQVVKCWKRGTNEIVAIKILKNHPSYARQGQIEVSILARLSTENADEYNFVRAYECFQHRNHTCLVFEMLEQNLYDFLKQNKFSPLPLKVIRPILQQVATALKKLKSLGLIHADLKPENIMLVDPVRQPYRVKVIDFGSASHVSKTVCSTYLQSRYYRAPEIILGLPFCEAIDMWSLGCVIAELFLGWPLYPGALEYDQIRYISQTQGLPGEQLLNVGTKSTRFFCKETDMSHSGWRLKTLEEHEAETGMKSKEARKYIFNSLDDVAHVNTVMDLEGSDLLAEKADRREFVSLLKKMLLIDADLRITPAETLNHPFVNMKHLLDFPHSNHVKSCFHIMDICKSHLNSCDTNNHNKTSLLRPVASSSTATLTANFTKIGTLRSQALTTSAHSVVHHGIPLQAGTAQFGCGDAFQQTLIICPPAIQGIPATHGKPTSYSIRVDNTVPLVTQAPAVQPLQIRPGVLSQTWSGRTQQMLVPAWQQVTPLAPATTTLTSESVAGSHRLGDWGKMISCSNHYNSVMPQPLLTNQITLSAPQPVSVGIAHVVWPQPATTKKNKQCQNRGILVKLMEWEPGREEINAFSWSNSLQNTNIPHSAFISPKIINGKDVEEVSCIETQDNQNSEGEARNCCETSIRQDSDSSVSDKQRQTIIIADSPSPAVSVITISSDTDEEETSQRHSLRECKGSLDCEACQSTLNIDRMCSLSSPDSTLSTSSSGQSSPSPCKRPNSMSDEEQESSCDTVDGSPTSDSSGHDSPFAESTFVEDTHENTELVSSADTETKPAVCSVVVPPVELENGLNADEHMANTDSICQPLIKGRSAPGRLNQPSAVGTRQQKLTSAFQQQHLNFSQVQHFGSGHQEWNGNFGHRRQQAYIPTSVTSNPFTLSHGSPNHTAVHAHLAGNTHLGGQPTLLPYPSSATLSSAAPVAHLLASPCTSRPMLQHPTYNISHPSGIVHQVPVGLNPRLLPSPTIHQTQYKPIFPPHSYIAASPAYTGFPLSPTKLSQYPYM", "test": "radiometric filter-binding kinase assay"}, "TBK1 (human)": {"target": "TBK1 (human) (UniProt Q9UHD2)", "test": "radiometric filter-binding kinase assay"}, "PRKCA (human)": {"target": "PRKCA (human) (UniProt P17252)", "test": "radiometric filter-binding kinase assay"}, "[3]": {"tested_on": "PAK2 (human), Q13177 [T402E]", "test": "radiometric filter-binding kinase assay"}, "PAK6 (human)": {"target": "PAK6 (human) (UniProt Q9NQU5)", "test": "radiometric filter-binding kinase assay"}, "INSR (human)": {"target": "INSR (human) (UniProt P06213)", "test": "radiometric filter-binding kinase assay"}, "IGF1R (human)": {"target": "IGF1R (human) (UniProt P08069)", "test": "radiometric filter-binding kinase assay"}, "PIM2 (human)": {"target": "PIM2 (human) (UniProt Q9P1W9)", "sequence (Q9P1W9 whole entry, looked up)": "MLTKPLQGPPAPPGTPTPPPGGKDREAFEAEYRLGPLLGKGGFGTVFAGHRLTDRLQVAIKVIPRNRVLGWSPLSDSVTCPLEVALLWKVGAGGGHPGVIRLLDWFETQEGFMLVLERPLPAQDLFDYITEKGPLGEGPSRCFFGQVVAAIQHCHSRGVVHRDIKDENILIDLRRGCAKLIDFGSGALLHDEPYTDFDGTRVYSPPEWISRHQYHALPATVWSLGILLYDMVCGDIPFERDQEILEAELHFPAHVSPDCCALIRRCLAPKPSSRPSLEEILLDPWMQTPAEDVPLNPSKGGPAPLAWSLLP", "test": "radiometric filter-binding kinase assay"}, "BRSK1 (human)": {"target": "BRSK1 (human) (UniProt Q8TDC3)", "sequence (Q8TDC3 whole entry, looked up)": "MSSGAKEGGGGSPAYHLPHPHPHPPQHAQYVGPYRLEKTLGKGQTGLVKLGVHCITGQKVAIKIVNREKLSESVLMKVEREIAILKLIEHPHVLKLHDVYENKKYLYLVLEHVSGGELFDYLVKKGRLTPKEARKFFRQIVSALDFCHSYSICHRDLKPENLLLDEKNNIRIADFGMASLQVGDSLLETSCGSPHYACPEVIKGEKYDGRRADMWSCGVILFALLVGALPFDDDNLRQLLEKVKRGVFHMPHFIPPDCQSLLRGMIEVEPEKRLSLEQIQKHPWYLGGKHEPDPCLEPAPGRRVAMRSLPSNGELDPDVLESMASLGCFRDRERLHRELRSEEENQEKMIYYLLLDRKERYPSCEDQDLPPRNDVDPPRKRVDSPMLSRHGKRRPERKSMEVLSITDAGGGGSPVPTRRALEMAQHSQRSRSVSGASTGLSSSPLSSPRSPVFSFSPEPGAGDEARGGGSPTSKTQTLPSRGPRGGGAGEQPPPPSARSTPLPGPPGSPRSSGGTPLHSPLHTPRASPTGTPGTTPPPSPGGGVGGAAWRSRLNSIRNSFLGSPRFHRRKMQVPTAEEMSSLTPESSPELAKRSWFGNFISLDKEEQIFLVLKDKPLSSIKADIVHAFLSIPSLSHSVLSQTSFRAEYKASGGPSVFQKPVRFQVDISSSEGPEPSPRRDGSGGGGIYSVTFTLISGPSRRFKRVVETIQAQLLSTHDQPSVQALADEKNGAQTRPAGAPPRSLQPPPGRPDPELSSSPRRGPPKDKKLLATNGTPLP", "test": "radiometric filter-binding kinase assay"}, "CSK (human)": {"target": "CSK (human) (UniProt P41240)", "sequence (P41240 whole entry, looked up)": "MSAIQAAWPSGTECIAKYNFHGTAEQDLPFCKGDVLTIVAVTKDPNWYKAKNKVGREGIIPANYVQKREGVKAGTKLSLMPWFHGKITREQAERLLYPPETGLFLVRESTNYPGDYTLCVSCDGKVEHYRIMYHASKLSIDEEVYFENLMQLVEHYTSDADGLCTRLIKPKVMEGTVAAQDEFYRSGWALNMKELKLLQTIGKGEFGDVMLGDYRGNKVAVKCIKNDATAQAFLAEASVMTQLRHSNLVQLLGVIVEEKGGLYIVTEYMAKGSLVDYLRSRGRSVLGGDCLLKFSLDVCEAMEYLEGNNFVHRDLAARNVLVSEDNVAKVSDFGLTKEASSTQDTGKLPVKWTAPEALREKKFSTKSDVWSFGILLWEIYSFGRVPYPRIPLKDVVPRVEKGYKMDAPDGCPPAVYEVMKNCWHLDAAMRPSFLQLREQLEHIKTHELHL", "test": "radiometric filter-binding kinase assay"}, "MINK1 (human)": {"target": "MINK1 (human) (UniProt Q8N4C8)", "test": "radiometric filter-binding kinase assay"}, "MAP3K11 (human)": {"target": "MAP3K11 (human) (UniProt Q16584)", "test": "radiometric filter-binding kinase assay"}, "MAPKAPK2 (human)": {"target": "MAPKAPK2 (human) (UniProt P49137)", "test": "radiometric filter-binding kinase assay"}, "IKBKB (human)": {"target": "IKBKB (human) (UniProt O14920)", "test": "radiometric filter-binding kinase assay"}, "RIPK2 (human)": {"target": "RIPK2 (human) (UniProt O43353)", "test": "radiometric filter-binding kinase assay"}, "STK3 (human)": {"target": "STK3 (human) (UniProt Q13188)", "sequence (Q13188 whole entry, looked up)": "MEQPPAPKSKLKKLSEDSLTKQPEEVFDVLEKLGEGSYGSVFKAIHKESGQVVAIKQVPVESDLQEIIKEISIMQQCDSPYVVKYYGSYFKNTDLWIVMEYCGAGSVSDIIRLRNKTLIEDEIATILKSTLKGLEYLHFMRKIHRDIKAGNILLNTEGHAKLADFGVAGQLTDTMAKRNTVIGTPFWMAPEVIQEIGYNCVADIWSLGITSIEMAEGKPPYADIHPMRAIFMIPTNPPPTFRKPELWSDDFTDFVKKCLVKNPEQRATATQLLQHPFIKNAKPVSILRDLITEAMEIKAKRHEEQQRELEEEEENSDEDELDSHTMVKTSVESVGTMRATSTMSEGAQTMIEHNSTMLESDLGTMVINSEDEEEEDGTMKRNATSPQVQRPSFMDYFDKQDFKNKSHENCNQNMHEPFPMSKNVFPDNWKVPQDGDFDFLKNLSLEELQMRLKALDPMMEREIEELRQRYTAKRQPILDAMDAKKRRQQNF", "test": "radiometric filter-binding kinase assay"}, "PAK7 (human)": {"target": "PAK7 (human) (UniProt Q9P286)", "sequence (Q9P286 whole entry, looked up)": "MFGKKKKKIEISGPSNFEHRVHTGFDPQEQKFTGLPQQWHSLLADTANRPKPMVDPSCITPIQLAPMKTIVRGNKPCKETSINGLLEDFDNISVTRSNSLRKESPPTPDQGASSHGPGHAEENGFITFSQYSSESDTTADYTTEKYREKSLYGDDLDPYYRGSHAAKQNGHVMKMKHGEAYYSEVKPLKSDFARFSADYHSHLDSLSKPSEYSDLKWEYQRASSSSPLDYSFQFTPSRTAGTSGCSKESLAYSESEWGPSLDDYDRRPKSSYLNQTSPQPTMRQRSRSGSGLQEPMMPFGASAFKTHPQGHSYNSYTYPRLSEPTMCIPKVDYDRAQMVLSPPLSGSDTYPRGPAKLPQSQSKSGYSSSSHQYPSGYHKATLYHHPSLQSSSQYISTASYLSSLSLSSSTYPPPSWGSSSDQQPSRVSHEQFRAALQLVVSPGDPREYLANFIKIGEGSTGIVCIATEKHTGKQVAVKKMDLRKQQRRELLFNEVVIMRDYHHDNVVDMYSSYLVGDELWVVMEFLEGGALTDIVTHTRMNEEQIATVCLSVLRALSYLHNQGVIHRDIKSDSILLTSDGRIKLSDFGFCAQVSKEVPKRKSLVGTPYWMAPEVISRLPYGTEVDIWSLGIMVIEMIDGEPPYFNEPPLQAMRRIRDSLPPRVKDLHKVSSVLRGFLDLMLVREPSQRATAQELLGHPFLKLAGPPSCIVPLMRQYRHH", "test": "radiometric filter-binding kinase assay"}, "MARK2 (human)": {"target": "MARK2 (human) (UniProt Q7KZI7)", "test": "radiometric filter-binding kinase assay"}, "LRRK2 (human) [4]": {"target": "LRRK2 (human) (UniProt Q5S007)", "test": "radiometric filter-binding kinase assay"}, "NUAK1 (human)": {"target": "NUAK1 (human) (UniProt O60285)", "test": "SelectScreen, TR FRET"}, "AURKA (human) [5]": {"target": "AURKA (human) (UniProt O14965)", "test": "SelectScreen, TR FRET"}, "MKNK2 (human)": {"target": "MKNK2 (human) (UniProt Q9HBH9)", "test": "SelectScreen, TR FRET"}, "MYLK (human)": {"target": "MYLK (human) (UniProt Q15746)", "test": "SelectScreen, TR FRET"}, "DCLK2 (human)": {"target": "DCLK2 (human) (UniProt Q8N568)", "test": "SelectScreen, TR FRET"}, "PLK1 (human)": {"target": "PLK1 (human) (UniProt P53350)", "test": "SelectScreen, TR FRET"}, "CHEK2 (human)": {"target": "CHEK2 (human) (UniProt O96017)", "test": "SelectScreen, TR FRET"}, "AURKB (human)": {"target": "AURKB (human) (UniProt Q96GD4)", "test": "SelectScreen, TR FRET"}, "LRRK2 (human) [6]": {"target": "LRRK2 (human) (UniProt Q5S007)", "test": "SelectScreen, TR FRET"}}, "data": [{"compound": "COc1cc(C(=O)N2CCC(N3CCN(C)CC3)CC2)ccc1Nc1ncc2c(n1)N(C)c1ccccc1C(=O)N2C", "values": [{"measurement": "IC50", "setting": "AURKA (human) [1]", "value": 1.2, "unit": "µM"}, {"measurement": "residual activity", "setting": "AURKA (human) [1]; compound 1.0 µM", "value": 33, "unit": "%"}, {"measurement": "residual activity", "setting": "AURKA (human) [1]; compound 10.0 µM", "value": 5, "unit": "%"}, {"measurement": "residual activity", "setting": "DAPK1 (human); compound 1.0 µM", "value": 85, "unit": "%"}, {"measurement": "residual activity", "setting": "DAPK1 (human); compound 10.0 µM", "value": 77, "unit": "%"}, {"measurement": "residual activity", "setting": "GCK (human); compound 1.0 µM", "value": 93, "unit": "%"}, {"measurement": "residual activity", "setting": "GCK (human); compound 10.0 µM", "value": 99, "unit": "%"}, {"measurement": "residual activity", "setting": "DYRK2 (human); compound 1.0 µM", "value": 90, "unit": "%"}, {"measurement": "residual activity", "setting": "DYRK2 (human); compound 10.0 µM", "value": 98, "unit": "%"}, {"measurement": "residual activity", "setting": "BRSK2 (human); compound 1.0 µM", "value": 89, "unit": "%"}, {"measurement": "residual activity", "setting": "BRSK2 (human); compound 10.0 µM", "value": 87, "unit": "%"}, {"measurement": "residual activity", "setting": "[2]; compound 1.0 µM", "value": 86, "unit": "%"}, {"measurement": "residual activity", "setting": "[2]; compound 10.0 µM", "value": 81, "unit": "%"}, {"measurement": "residual activity", "setting": "MKNK1 (human); compound 1.0 µM", "value": 86, "unit": "%"}, {"measurement": "residual activity", "setting": "MKNK1 (human); compound 10.0 µM", "value": 53, "unit": "%"}, {"measurement": "residual activity", "setting": "HIPK3 (human); compound 1.0 µM", "value": 90, "unit": "%"}, {"measurement": "residual activity", "setting": "HIPK3 (human); compound 10.0 µM", "value": 102, "unit": "%"}, {"measurement": "residual activity", "setting": "TBK1 (human); compound 1.0 µM", "value": 94, "unit": "%"}, {"measurement": "residual activity", "setting": "TBK1 (human); compound 10.0 µM", "value": 104, "unit": "%"}, {"measurement": "residual activity", "setting": "PRKCA (human); compound 1.0 µM", "value": 95, "unit": "%"}, {"measurement": "residual activity", "setting": "PRKCA (human); compound 10.0 µM", "value": 97, "unit": "%"}, {"measurement": "residual activity", "setting": "[3]; compound 1.0 µM", "value": 97, "unit": "%"}, {"measurement": "residual activity", "setting": "[3]; compound 10.0 µM", "value": 110, "unit": "%"}, {"measurement": "residual activity", "setting": "PAK6 (human); compound 1.0 µM", "value": 94, "unit": "%"}, {"measurement": "residual activity", "setting": "PAK6 (human); compound 10.0 µM", "value": 89, "unit": "%"}, {"measurement": "residual activity", "setting": "INSR (human); compound 1.0 µM", "value": 104, "unit": "%"}, {"measurement": "residual activity", "setting": "INSR (human); compound 10.0 µM", "value": 103, "unit": "%"}, {"measurement": "residual activity", "setting": "IGF1R (human); compound 1.0 µM", "value": 107, "unit": "%"}, {"measurement": "residual activity", "setting": "IGF1R (human); compound 10.0 µM", "value": 90, "unit": "%"}, {"measurement": "residual activity", "setting": "PIM2 (human); compound 1.0 µM", "value": 87, "unit": "%"}, {"measurement": "residual activity", "setting": "PIM2 (human); compound 10.0 µM", "value": 97, "unit": "%"}, {"measurement": "residual activity", "setting": "BRSK1 (human); compound 1.0 µM", "value": 83, "unit": "%"}, {"measurement": "residual activity", "setting": "BRSK1 (human); compound 10.0 µM", "value": 78, "unit": "%"}, {"measurement": "residual activity", "setting": "CSK (human); compound 1.0 µM", "value": 70, "unit": "%"}, {"measurement": "residual activity", "setting": "CSK (human); compound 10.0 µM", "value": 80, "unit": "%"}, {"measurement": "residual activity", "setting": "MINK1 (human); compound 1.0 µM", "value": 99, "unit": "%"}, {"measurement": "residual activity", "setting": "MINK1 (human); compound 10.0 µM", "value": 108, "unit": "%"}, {"measurement": "residual activity", "setting": "MAP3K11 (human); compound 1.0 µM", "value": 94, "unit": "%"}, {"measurement": "residual activity", "setting": "MAP3K11 (human); compound 10.0 µM", "value": 84, "unit": "%"}, {"measurement": "residual activity", "setting": "MAPKAPK2 (human); compound 1.0 µM", "value": 86, "unit": "%"}, {"measurement": "residual activity", "setting": "MAPKAPK2 (human); compound 10.0 µM", "value": 84, "unit": "%"}, {"measurement": "residual activity", "setting": "IKBKB (human); compound 1.0 µM", "value": 103, "unit": "%"}, {"measurement": "residual activity", "setting": "IKBKB (human); compound 10.0 µM", "value": 106, "unit": "%"}, {"measurement": "residual activity", "setting": "RIPK2 (human); compound 1.0 µM", "value": 103, "unit": "%"}, {"measurement": "residual activity", "setting": "RIPK2 (human); compound 10.0 µM", "value": 101, "unit": "%"}, {"measurement": "residual activity", "setting": "STK3 (human); compound 1.0 µM", "value": 100, "unit": "%"}, {"measurement": "residual activity", "setting": "STK3 (human); compound 10.0 µM", "value": 98, "unit": "%"}, {"measurement": "residual activity", "setting": "PAK7 (human); compound 1.0 µM", "value": 84, "unit": "%"}, {"measurement": "residual activity", "setting": "PAK7 (human); compound 10.0 µM", "value": 89, "unit": "%"}, {"measurement": "residual activity", "setting": "MARK2 (human); compound 1.0 µM", "value": 62, "unit": "%"}, {"measurement": "residual activity", "setting": "MARK2 (human); compound 10.0 µM", "value": 72, "unit": "%"}, {"measurement": "IC50", "setting": "LRRK2 (human) [4]", "value": 0.013, "unit": "µM"}, {"measurement": "IC50", "setting": "NUAK1 (human)", "value": 3.67, "unit": "µM"}, {"measurement": "IC50", "setting": "AURKA (human) [5]", "value": 0.87, "unit": "µM"}, {"measurement": "IC50", "setting": "MKNK2 (human)", "value": 4.47, "unit": "µM"}, {"measurement": "IC50", "setting": "MYLK (human)", "value": 8.21, "unit": "µM"}, {"measurement": "IC50", "setting": "DCLK2 (human)", "value": 45, "unit": "µM"}, {"measurement": "IC50", "setting": "PLK1 (human)", "value": 983, "unit": "µM"}, {"measurement": "IC50", "setting": "CHEK2 (human)", "value": 6.51, "unit": "µM"}, {"measurement": "IC50", "setting": "AURKB (human)", "value": 5.92, "unit": "µM"}, {"measurement": "IC50", "setting": "LRRK2 (human) [6]", "value": 0.003, "unit": "µM"}]}]}
